Laboratory results taken from patent US20210323950A1, “HERBICIDALLY ACTIVE BICYCLIC BENZOYLPYRAZOLES” (Bayer Aktiengesellschaft, priority 2018, published 2021).

How the values were obtained:
Assay type in all cases: in vivo
Setaria viridis (SETVI) [1] = test: Pre-emergence herbicidal action against SETVI; conditions: 80 g/ha, scored visually after about 3 weeks vs untreated controls
Text: (§1) SETVI: Setaria viridis 1. Pre-Emergence Herbicidal Action and Crop Plant Compatibility Seeds of monocotyledonous and dicotyledonous weed plants and crop plants are placed in plastic or organic planting pots and covered with soil. The compounds of the invention, formulated in the form of wettable powders (WP) or as emulsion concentrates (EC), are then applied onto the surface of the covering soil as aqueous suspension or emulsion with addition of 0.5% additive at a water application rate of […] (converted). After the treatment, the pots are placed in a greenhouse and kept under good growth conditions for the trial plants. After about 3 weeks, the effect of the preparations is scored visually in comparison with untreated controls as percentages. The tables below show the herbicidal activity of numerous compounds according to the invention against important harmful plants. For example, 100% activity=the plants have died, 0% activity=like control plants.

[2] = test system: Amaranthus retroflexus (AMARE); test: Pre-emergence herbicidal action against AMARE; conditions: 80 g/ha, scored visually after about 3 weeks vs untreated controls
Text: as §1, with “AMARE: Amaranthus retroflexus” for “SETVI: Setaria viridis”

Stellaria media (STEME) [3] = test: Post-emergence herbicidal action against STEME; conditions: 20 g/ha, post-emergence at one-leaf stage, rated visually after about 3 weeks vs untreated controls
Description: (§2) STEME: Stellaria media 2. Post-Emergence Herbicidal Action and Crop Plant Compatibility Seeds of monocotyledonous and dicotyledonous weeds and crop plants are placed in sandy loam in plastic or organic planting pots, covered with soil and cultivated in a greenhouse under controlled growth conditions. 2 to 3 weeks after sowing, the test plants are treated at the one-leaf stage. The compounds of the invention, formulated in the form of wettable powders (WP) or as emulsion concentrates (EC), are then sprayed onto the green parts of the plants as aqueous suspension or emulsion with addition of 0.5% additive at a water application rate of […] (converted). After the test plants had been kept in the greenhouse under optimum growth conditions for about 3 weeks, the activity of the preparations is rated visually in comparison to untreated controls. The tables below show the herbicidal activity of numerous compounds according to the invention against important harmful plants. For example, 100% activity=the plants have died, 0% activity=like control plants.

Stellaria media (STEME) [4] = test: Pre-emergence herbicidal action against STEME; conditions: 80 g/ha, scored visually after about 3 weeks vs untreated controls
Text: as §1, with “STEME: Stellaria media” for “SETVI: Setaria viridis”

[5] = test system: Amaranthus retroflexus (AMARE); test: Post-emergence herbicidal action against AMARE; conditions: 20 g/ha, post-emergence at one-leaf stage, rated visually after about 3 weeks vs untreated controls
Description: as §2, with “AMARE: Amaranthus retroflexus” for “STEME: Stellaria media”

[6] = test system: Abutilon theophrasti (ABUTH); test: Pre-emergence herbicidal action against ABUTH; conditions: 80 g/ha, scored visually after about 3 weeks vs untreated controls
Text: as §1, with “ABUTH: Abutilon theophrasti” for “SETVI: Setaria viridis”

Viola tricolor (VIOTR) = test: Pre-emergence herbicidal action against VIOTR; conditions: 80 g/ha, scored visually after about 3 weeks vs untreated controls
Text: as §1, with “VIOTR: Viola tricolor” for “SETVI: Setaria viridis”

Setaria viridis (SETVI) [7] = test: Post-emergence herbicidal action against SETVI; conditions: 20 g/ha, post-emergence at one-leaf stage, rated visually after about 3 weeks vs untreated controls
Description: as §2, with “SETVI: Setaria viridis” for “STEME: Stellaria media”

[8] = test system: Echinochloa crus-galli (ECHCG); test: Post-emergence herbicidal action against ECHCG; conditions: 20 g/ha, post-emergence at one-leaf stage, rated visually after about 3 weeks vs untreated controls
Description: as §2, with “ECHCG: Echinochloa crus-galli” for “STEME: Stellaria media”

[9] = test system: Echinochloa crus-galli (ECHCG); test: Pre-emergence herbicidal action against ECHCG; conditions: 80 g/ha, scored visually after about 3 weeks vs untreated controls
Text: as §1, with “ECHCG: Echinochloa crus-galli” for “SETVI: Setaria viridis”

Cc1nn(C)c(O)c1C(=O)c1ccc(C(F)(F)F)c2c1OCS2 [Example 1-23] was tested, and the “Pre-emergence action against SETVI” value (Setaria viridis (SETVI) [1]) was 100%, the “Pre-emergence action against AMARE” value [2] was 80% and the “Post-emergence action against STEME” value (Stellaria media (STEME) [3]) was 80%. The “Pre-emergence action against STEME” value (Stellaria media (STEME) [4]) was 100%, the “Post-emergence action against AMARE” value [5] was 100% and the “Pre-emergence action against ABUTH” value [6] was 100%.
Cn1ncc(C(=O)c2ccc(C(F)(F)F)c3c2SCS3)c1O [Example 1-58] was tested, and the “Pre-emergence action against AMARE” value [2] was 80%, the “Post-emergence action against STEME” value (Stellaria media (STEME) [3]) was 80% and the “Pre-emergence action against STEME” value (Stellaria media (STEME) [4]) was 90%. The “Pre-emergence action against VIOTR” value (Viola tricolor (VIOTR)) was 100%, the “Post-emergence action against AMARE” value [5] was 90% and the “Post-emergence action against SETVI” value (Setaria viridis (SETVI) [7]) was 80%.
In the case of Cn1ncc(C(=O)c2ccc(C(F)(F)F)c3c2SCCS3)c1O [Example 1-60], the “Pre-emergence action against AMARE” value [2] is reported as 100%, the “Post-emergence action against STEME” value (Stellaria media (STEME) [3]) is reported as 80% and the “Pre-emergence action against STEME” value (Stellaria media (STEME) [4]) is reported as 90%. For the same molecule, the “Pre-emergence action against VIOTR” value (Viola tricolor (VIOTR)) was 100% and the “Post-emergence action against AMARE” value [5] was 90%.
For CCn1ncc(C(=O)c2ccc(C(F)(F)F)c3c2SCCS3)c1O [Example 1-65], the “Pre-emergence action against SETVI” value (Setaria viridis (SETVI) [1]) was 90%, the “Pre-emergence action against AMARE” value [2] was 100% and the “Post-emergence action against ECHCG” value [8] was 80%. The “Pre-emergence action against STEME” value (Stellaria media (STEME) [4]) was 100%, the “Pre-emergence action against VIOTR” value (Viola tricolor (VIOTR)) was 100% and the “Post-emergence action against AMARE” value [5] was 80%. The “Pre-emergence action against ECHCG” value [9] was 80% and the “Post-emergence action against SETVI” value (Setaria viridis (SETVI) [7]) was 100%.
With Cc1nn(C)c(O)c1C(=O)c1ccc(C(F)(F)F)c2c1SCCS2 [Example 1-70] the “Pre-emergence action against AMARE” value [2] was 100%, the “Post-emergence action against STEME” value (Stellaria media (STEME) [3]) was 80% and the “Pre-emergence action against STEME” value (Stellaria media (STEME) [4]) was 100%. The “Pre-emergence action against VIOTR” value (Viola tricolor (VIOTR)) was 90% and the “Post-emergence action against AMARE” value [5] was 90%.
With CCn1ncc(C(=O)c2ccc(C(F)(F)F)c3c2SCS3(=O)=O)c1O [Example 1-89] the “Pre-emergence action against AMARE” value [2] was 100%, the “Post-emergence action against STEME” value (Stellaria media (STEME) [3]) was 80% and the “Pre-emergence action against STEME” value (Stellaria media (STEME) [4]) was 100%. The “Post-emergence action against AMARE” value [5] was 90% and the “Pre-emergence action against ABUTH” value [6] was 90%.
In the case of Cc1nn(C)c(O)c1C(=O)c1ccc(C(F)(F)F)c2c1SCS2(=O)=O [Example 1-93], the “Pre-emergence action against AMARE” value [2] is reported as 100%, the “Post-emergence action against ECHCG” value [8] is reported as 80% and the “Pre-emergence action against STEME” value (Stellaria media (STEME) [4]) is reported as 90%. The “Post-emergence action against AMARE” value [5] was 90%.
With Cn1nc(C2CC2)c(C(=O)c2ccc(C(F)(F)F)c3c2OCS3)c1O [Example 1-112] the “Pre-emergence action against AMARE” value [2] was 100%, the “Post-emergence action against ECHCG” value [8] was 80% and the “Post-emergence action against STEME” value (Stellaria media (STEME) [3]) was 80%. The “Pre-emergence action against STEME” value (Stellaria media (STEME) [4]) was 90%, the “Pre-emergence action against VIOTR” value (Viola tricolor (VIOTR)) was 90% and the “Post-emergence action against AMARE” value [5] was 100%.
For Cn1ncc(C(=O)c2ccc(C(F)(F)C(F)(F)F)c3c2OCS3(=O)=O)c1O [Example 1-130], the “Pre-emergence action against AMARE” value [2] was 100%, the “Post-emergence action against STEME” value (Stellaria media (STEME) [3]) was 90% and the “Pre-emergence action against STEME” value (Stellaria media (STEME) [4]) was 100%. For the same molecule, the “Post-emergence action against AMARE” value [5] was 100%.
For CCn1ncc(C(=O)c2ccc(C(F)(F)C(F)(F)F)c3c2OCS3)c1O [Example 1-131], the “Pre-emergence action against SETVI” value (Setaria viridis (SETVI) [1]) was 100%, the “Pre-emergence action against AMARE” value [2] was 100% and the “Post-emergence action against ECHCG” value [8] was 80%. The “Pre-emergence action against STEME” value (Stellaria media (STEME) [4]) was 90%, the “Pre-emergence action against VIOTR” value (Viola tricolor (VIOTR)) was 100% and the “Pre-emergence action against ABUTH” value [6] was 100%. For the same molecule, the “Post-emergence action against SETVI” value (Setaria viridis (SETVI) [7]) was 80%.
